Reference: patent US10532065B2, “Bisphosphonic acid derivative and application for same” (NAGASAKI UNIVERSITY, priority 2014, dated 2020)
pEC50, pIC50: −log10 of the molar value. Like-named read-outs stand apart in the source and are kept apart here.

Key:
Type in all cases: cell-based
PK-1 cells = test: PK-1 tumor cell growth inhibition (CellTiterGlo); details: PK-1, Pancreatic cancer, 4 days culture
Experimental: (§2) First, EJ-1, 786-0, MKN1, OST, PC-3, PK-1, LK-2, G-361, TFK-1, MRK-nu-1 were cultured in RPMI1640 medium supplemented with 10% calf serum at 37° C. under 5% CO2 atmosphere while maintaining log phase. The cells were recovered by a conventional EDTA trypsin treatment, and centrifuged at 1,700 rpm, 4° C. for 5 min. The supernatant was removed, and suspended in RPMI1640 medium supplemented with 10% calf serum to 500 cells/50 μl. On the other hand, 10 mM stock solution of compound 7 which is a bisphosphonic acid POM ester derivative was serially diluted 2-fold from 200 pM. In addition, 10 mM stock solution of compound 14 which is bisphosphonic acid was serially diluted 2-fold from 2 mM. Then, the cell suspension (50 μl, 500 cells) and the compound solution (50 μl) were added to a flat-bottomed 96 well plate and cultured at 37° C. under 5% CO2 atmosphere for 4 days. Then, 100 μl of CellTiterGlo solution was added, and the mixture was pipetted 10 strokes, and transferred to a 96 well OptiPlate. After standing at room temperature for 10 min, the luminescence was measured by a luminometer and IC50 value was calculated.

G-361 cells = test: G-361 tumor cell growth inhibition (CellTiterGlo); details: G-361, Melanoma, 4 days culture
Experimental: as §2

TFK-1 cells = test: TFK-1 tumor cell growth inhibition (CellTiterGlo); details: TFK-1, Cholangiocarcinoma, 4 days culture
Experimental: as §2

THP-1 cells = test: THP-1 tumor cell growth inhibition (CellTiterGlo); details: THP-1, Acute monocytic leukemia, 4 days culture
Experimental: (§3) To quantitatively study an action of compound 7, which is a bisphosphonic acid POM ester derivative, on various hematologic tumor-derived lymphoma and myeloidic leukemia cells, the concentration of a compound that inhibits cell proliferation to half was calculated as IC50, and a direct antitumor effect was studied from the value thereof. […] First, MOLT-4, THP-1, SCC-3, PEER, RAMOS-RA1, C1R, MOLT-3, Raji, U937, K562, Daudi were cultured in RPMI1640 medium supplemented with 10% calf serum at 37° C. under 5% CO2 atmosphere while maintaining log phase. The cells were recovered, and centrifuged at 1,700 rpm, 4° C. for 5 min. The supernatant was removed, and suspended in RPMI1640 medium supplemented with 10% calf serum to 500 cells/50 μl. On the other hand, 10 mM stock solution of compound 7 which is a bisphosphonic acid POM ester derivative was serially diluted 2-fold from 200 μM. In addition, 10 mM stock solution of compound 14 which is bisphosphonic acid was serially diluted 2-fold from 2 mM. Then, the cell suspension (50 μl, 500 cells) and the compound solution (50 μl) were added to a flat-bottomed 96 well plate and cultured at 37° C. under 5% CO2 atmosphere for 4 days. Then, 100 μl of CellTiterGlo solution was added, and the mixture was pipetted 10 strokes, and transferred to a 96 well OptiPlate. […]

K562 cells = test: K562 tumor cell growth inhibition (CellTiterGlo); details: K562, Erythromcytoma, 4 days culture
Experimental: as §3

EJ-1 cells / γδ T cells = test: TNF-α production from γδ T cells stimulated by compound-pretreated EJ-1 cells (indirect antitumor action, ELISA); details: for pEC50: EJ-1 pretreated 4 hr with compound, 16 hr with γδ T cells, TNF-α ELISA, read-out: TNF-α50
Summary of the method: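 EJ-1 cells exposed 4 h at 37 °C to 10-fold serial dilutions (POM esters from 20 µM, bisphosphonic acids from 200 µM), washed three times, then co-cultured with γδ T cells. Supernatant TNF-α measured by ELISA against a standard curve, in triplicate; TNF-α50 = […].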

786-0 cells / γδ T cells = test: TNF-α production from γδ T cells stimulated by compound-pretreated 786-0 cells; details: 786-0, Renal cell carcinoma, 4 hr pretreatment, 16 hr with γδ T cells, read-out: TNF-α50
Experimental: (§1) Since the above-mentioned results of Experimental Example confirm that the activity of bisphosphonic acids becomes high by POM esterification in various tumor cells, the TNF-α production induction ability of more number of tumor cells was quantitatively studied. […] Thereto was added a solution (500 μl) of compound 7 obtained by serially diluting 10 mM stock solution 10-fold from 20 μM, or a solution (500 μl) of compound 14 obtained by serially diluting 10 mM stock solution 10-fold from 200 μM, and the cells were suspended well. These conical tubes were stood at 37° C. for 4 hr, and the cells were washed 3 times with 5 ml of culture medium. To these cells was added 500 μl of medium, and the cells were suspended well. […] The cell culture medium was suspended well, and the plate was centrifuged at 1,700 rpm, 4° C. for 2 min and the culture supernatant (150 μl) was taken and placed in another round-bottomed 96 well plate. The plate was frozen at −80° C. overnight, left standing at room temperature for 1 hr, stirred well and 100 μl thereof was subjected to ELISA of TNF-α. The content of TNF-α was calculated from the analytical curve of TNF-α. These were performed in triplicate, and TNF-α50 of bisphosphonic acid POM ester derivative (compound 7) and bisphosphonic acid (compound 14) was calculated and summarized in Table 8.

SCC-3 cells / γδ T cells = test: TNF-α production from γδ T cells stimulated by compound-pretreated SCC-3 cells; details: SCC-3, Non-Hodgkin's lymphoma, 4 hr pretreatment, 16 hr with γδ T cells, read-out: TNF-α50
Experimental: as §1

[1] = tested on: MOLT-3 cells / γδ T cells; test: TNF-α production from γδ T cells stimulated by compound-pretreated MOLT-3 cells; details: MOLT-3, Acute lymphoblastic leukemia, 4 hr pretreatment, 16 hr with γδ T cells, read-out: TNF-α50
Experimental: as §1

[2] = tested on: HMC-1-8 cells / γδ T cells; test: TNF-α production from γδ T cells stimulated by compound-pretreated HMC-1-8 cells; details: HMC-1-8, Mammary carcinoma, 4 hr pretreatment, 16 hr with γδ T cells, read-out: TNF-α50
Experimental: as §1

SMILES: CC(C)(C)C(=O)OCOP(=O)(OCOC(=O)C(C)(C)C)C(CNc1nccs1)P(=O)(OCOC(=O)C(C)(C)C)OCOC(=O)C(C)(C)C [Compound 7, tetrakispivaloyloxymethyl 2-(thiazol-2-ylamino) ethylidene-1,1-bisphosphonate]
- pIC50 (PK-1 cells): 6.47
- pIC50 (G-361 cells): 6.92
- pIC50 (TFK-1 cells): 7.00
- pIC50 (THP-1 cells): 7.46
- pIC50 (K562 cells): 7.54
- pEC50 (EJ-1 cells / γδ T cells): 7.22
- TNF-α production induction activity (in words) (EJ-1 cells / γδ T cells; EJ-1 pretreated with compound, γδ T cells): high activity
- pEC50 (786-0 cells / γδ T cells): 7.19
- pEC50 (SCC-3 cells / γδ T cells): 7.09
- pEC50 [1]: 7.18
- pEC50 [2]: 6.04

SMILES: O=P(O)(O)C(CNc1nccs1)P(=O)(O)O [Compound 14, 2-(thiazol-2-ylamino)ethylidene-1,1-bisphosphonic Acid, reference compound]
- pIC50 (PK-1 cells; 96 h): 3.96
- pIC50 (G-361 cells; Homo sapiens, 96 h): 4.70
- pIC50 (TFK-1 cells; 96 h): 4.52
- pIC50 (THP-1 cells; Homo sapiens, 96 h): 3.89
- pIC50 (K562 cells; Homo sapiens, 96 h): 4.80
- pEC50 (EJ-1 cells / γδ T cells; EJ1): 4.17
- pEC50 (786-0 cells / γδ T cells; Homo sapiens): < 4.00
- pEC50 (SCC-3 cells / γδ T cells; Homo sapiens): < 4.00
- pEC50 ([1]; Homo sapiens): < 4.00
- pEC50 ([2]; T-cell): < 4.00
